Results: ChEMBL document CHEMBL2203221, “Atom-based enumeration: new eribulin analogues with low susceptibility to P-glycoprotein-mediated drug efflux” (Bioorg Med Chem Lett, 2012)

Assays:
[1] = test system: MES-SA; test: Resistance ratio of IC50 for human MES-SA/Dx5-Rx1 cells to IC50 for human MES-SA cells; assay type: functional
[2] = Cytotoxicity against human MES-SA cells; assay type: functional, cell-based
[3] = Cytotoxicity against human MES-SA/Dx5-Rx1 cells; assay type: functional, cell-based

SMILES | Ratio IC50 [1] | IC50 [2] [nM] | IC50 [3] [nM]
C=C1C[C@@H]2CC[C@@]34C[C@H]5O[C@H]6[C@@H](O3)[C@H]3O[C@H](CC[C@@H]3O[C@H]6[C@H]5O4)CC(=O)C[C@@H]3[C@@H](OC)[C@@H](C[C@H](O)CN)O[C@H]3C[C@H]3O[C@@H](CC[C@@H]1O2)C[C@@H](C)C3=C.CS(=O)(=O)O [ERIBULIN MESYLATE] | 1800 | 1.7 | 3100
C=C1C[C@@H]2CC[C@@]34C[C@H]5O[C@@H]6[C@@H](O3)[C@H]3O[C@H](CC[C@@H]3O[C@H]6[C@H]5O4)CC(=O)C[C@@H]3[C@@H](OC)[C@@H](C[C@H](O)COC)O[C@H]3C[C@H]3O[C@@H](CC[C@@H]1O2)C[C@@H](C)C3=C | 17 | 0.17 | 2.8
C=C1C[C@@H]2CC[C@@]34C[C@H]5O[C@@H]6[C@@H](O3)[C@H]3O[C@H](CC[C@@H]3O[C@H]6[C@H]5O4)CC(=O)C[C@@H]3[C@@H](OC)[C@@H](CC(O)CCCCCCCC)O[C@H]3C[C@H]3O[C@@H](CC[C@@H]1O2)C[C@@H](C)C3=C (stereo not given in full) | 7.2 | 0.77 | 5.6
C=C1C[C@@H]2CC[C@@]34C[C@H]5O[C@@H]6[C@@H](O3)[C@H]3O[C@H](CC[C@@H]3O[C@H]6[C@H]5O4)CC(=O)C[C@@H]3[C@@H](OC)[C@@H](C[C@H](O)CO)O[C@H]3C[C@H]3O[C@@H](CC[C@@H]1O2)C[C@@H](C)C3=C | 220 | 0.03 | 6.5
C=C1C[C@@H]2CC[C@@]34C[C@H]5O[C@@H]6[C@@H](O3)[C@H]3O[C@H](CC[C@@H]3O[C@H]6[C@H]5O4)CC(=O)C[C@@H]3[C@@H](OC)[C@@H](CCO)O[C@H]3C[C@H]3O[C@@H](CC[C@@H]1O2)C[C@@H](C)C3=C | 33 | 3 | 100
CC(=O)O[C@H]1C(=O)[C@@]2(C)[C@H]([C@H](OC(=O)c3ccccc3)[C@]3(O)C[C@H](OC(=O)[C@H](O)[C@@H](NC(=O)c4ccccc4)c4ccccc4)C(C)=C1C3(C)C)[C@]1(OC(C)=O)CO[C@@H]1C[C@@H]2O [PACLITAXEL] | – | – | > 1000
C=C1C[C@@H]2CC[C@@]34C[C@H]5O[C@@H]6[C@@H](O3)[C@H]3O[C@H](CC[C@@H]3O[C@H]6[C@H]5O4)CC(=O)C[C@@H]3[C@@H](OC)[C@@H](CC(C)O)O[C@H]3C[C@H]3O[C@@H](CC[C@@H]1O2)C[C@@H](C)C3=C (stereo not given in full) | 17 | 0.29 | 4.8
C=C1C[C@@H]2CC[C@@]34C[C@H]5O[C@@H]6[C@@H](O3)[C@H]3O[C@H](CC[C@@H]3O[C@H]6[C@H]5O4)CC(=O)C[C@@H]3[C@@H](OC)[C@@H](CC(O)CCCCCC)O[C@H]3C[C@H]3O[C@@H](CC[C@@H]1O2)C[C@@H](C)C3=C (stereo not given in full) | 4.6 | 0.46 | 2.1
C=C1C[C@@H]2CC[C@@]34C[C@H]5O[C@@H]6[C@@H](O3)[C@H]3O[C@H](CC[C@@H]3O[C@H]6[C@H]5O4)CC(=O)C[C@@H]3[C@@H](OC)[C@@H](CC(O)CCCC)O[C@H]3C[C@H]3O[C@@H](CC[C@@H]1O2)C[C@@H](C)C3=C (stereo not given in full) | 4.2 | 0.22 | 0.91
